Test results reported in patent publication US20020150626A1, “Lipid-protein-sugar particles for delivery of nucleic acids” (priority 2000, published 2002).
Read-outs that look alike come from different tables or passages of the source.

How the values were obtained:
[1] = rat, in vivo
Procedure: The presence of functional deficits in the un-injected extremity was used as a measure of the degree of systemically distributed local anesthetic (i.e., toxicity). Thermal latency (the length of time that a rat would leave his paw on the hotplate) was measured in the un-injected leg at predetermined intervals, in rats who received 10% bupivacaine LPSPs or 50% bupivacaine microspheres (FIG. 4).

[2] = adult rats; Kohane et al. 1998; cited from earlier work
[3] = Median lethal dose of bupivacaine (literature); format: in vivo; settings: in a 350 g rat

For `CCCCN1CCCCC1C(=O)Nc1c(C)cccc1C` (stereo not drawn) [bupivacaine in solution, bupivacaine], the “signs of systemic toxicity (contralateral thermal latency)” value [1] is given as “one of those rats had severe signs of systemic toxicity”, the median lethal dose [2] is given as 30 ± 5 mg/kg and the median lethal dose [3] is given as 10.5 mg.
